This note sets out measurements from patent US9371320B2, “Heterocyclic compound” (TAKEDA PHARMACEUTICAL COMPANY LIMITED, priority 2012, dated 2016).

One assay deals with T1, JAK1 (Homo sapiens, UniProt P23458).
T1 construct: purchased Invitrogen
In words: JAK1 enzyme inhibition test (LANCE method). Particulars: for inhibition at 1 µM: test compound 1 μM, read-out: Inhibitory rate (%) JAK1 1 μM; for inhibition at 10 µM: test compound 10 μM (Ex. 182-220), beside Tyk2 1 μM, read-out: Inhibitory rate (%) JAK1 10 μM. The assay is classed as biochemical. In outline: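 Reactions ran 1 h at room temperature in HEPES pH 7.5/MgCl2 buffer, with ATP solution at 150 μM and JAK1 and ULight peptide solutions at 187.5 ng/mL and 300 nM. Reactions were stopped with EDTA, and phosphorylation was read by Eu antibody time-resolved fluorescence at 665 nm. Inhibition was scaled to a no-enzyme control as 100%.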

A further assay deals with T2, Tyk2 (Homo sapiens, UniProt P29597).
T2 construct: purchased Invitrogen
In words: Tyk2 enzyme inhibition test (LANCE method). The assay is classed as biochemical. Particulars: test compound 1 μM; read-out: Inhibitory rate (%) Tyk2 1 μM. The method in brief:
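LANCE TR-FRET read-out (ex 340/em 665 nm, 100 μs delay) of ULight-JAK1 phosphorylation, with no-enzyme wells as 100% inhibition. Reaction run 1 h at room temperature in pH 7.5 HEPES buffer; enzyme 375 ng/mL, substrate 300 nM and ATP 30 μM are solution concentrations before mixing.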
On the technique in general: TR-FRET usually uses a lanthanide donor and a delayed reading to cut background.

T1 sequence (P23458 whole entry): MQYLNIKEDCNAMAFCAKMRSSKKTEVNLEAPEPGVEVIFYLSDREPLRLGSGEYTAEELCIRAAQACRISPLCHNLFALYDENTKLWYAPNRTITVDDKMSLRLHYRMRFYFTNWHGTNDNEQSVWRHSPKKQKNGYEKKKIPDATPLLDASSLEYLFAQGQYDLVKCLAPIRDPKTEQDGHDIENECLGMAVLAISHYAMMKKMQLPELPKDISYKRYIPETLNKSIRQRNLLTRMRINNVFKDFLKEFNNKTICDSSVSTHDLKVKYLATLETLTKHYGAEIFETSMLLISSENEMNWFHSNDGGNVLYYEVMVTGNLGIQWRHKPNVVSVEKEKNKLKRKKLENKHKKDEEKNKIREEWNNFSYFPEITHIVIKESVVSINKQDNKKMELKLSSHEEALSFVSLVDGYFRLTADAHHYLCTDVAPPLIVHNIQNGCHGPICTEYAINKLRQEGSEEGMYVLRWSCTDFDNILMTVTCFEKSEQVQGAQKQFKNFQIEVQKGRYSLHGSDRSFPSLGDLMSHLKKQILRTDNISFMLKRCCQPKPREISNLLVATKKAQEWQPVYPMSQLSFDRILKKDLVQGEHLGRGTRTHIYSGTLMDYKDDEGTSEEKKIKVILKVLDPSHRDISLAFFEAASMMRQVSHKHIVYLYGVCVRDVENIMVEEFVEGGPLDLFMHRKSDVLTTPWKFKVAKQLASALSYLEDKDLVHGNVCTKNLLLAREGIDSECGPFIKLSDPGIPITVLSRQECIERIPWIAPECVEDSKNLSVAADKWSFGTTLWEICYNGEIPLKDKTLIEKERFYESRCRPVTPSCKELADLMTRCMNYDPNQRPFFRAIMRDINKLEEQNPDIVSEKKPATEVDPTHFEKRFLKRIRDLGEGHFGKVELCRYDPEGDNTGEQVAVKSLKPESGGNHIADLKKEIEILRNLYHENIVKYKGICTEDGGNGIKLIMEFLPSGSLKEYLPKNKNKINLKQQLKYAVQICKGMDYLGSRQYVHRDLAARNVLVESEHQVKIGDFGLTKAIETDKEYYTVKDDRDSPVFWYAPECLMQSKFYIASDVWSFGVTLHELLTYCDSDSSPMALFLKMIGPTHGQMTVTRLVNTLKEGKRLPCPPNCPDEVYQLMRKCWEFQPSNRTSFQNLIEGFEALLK
T2 sequence (P29597 whole entry): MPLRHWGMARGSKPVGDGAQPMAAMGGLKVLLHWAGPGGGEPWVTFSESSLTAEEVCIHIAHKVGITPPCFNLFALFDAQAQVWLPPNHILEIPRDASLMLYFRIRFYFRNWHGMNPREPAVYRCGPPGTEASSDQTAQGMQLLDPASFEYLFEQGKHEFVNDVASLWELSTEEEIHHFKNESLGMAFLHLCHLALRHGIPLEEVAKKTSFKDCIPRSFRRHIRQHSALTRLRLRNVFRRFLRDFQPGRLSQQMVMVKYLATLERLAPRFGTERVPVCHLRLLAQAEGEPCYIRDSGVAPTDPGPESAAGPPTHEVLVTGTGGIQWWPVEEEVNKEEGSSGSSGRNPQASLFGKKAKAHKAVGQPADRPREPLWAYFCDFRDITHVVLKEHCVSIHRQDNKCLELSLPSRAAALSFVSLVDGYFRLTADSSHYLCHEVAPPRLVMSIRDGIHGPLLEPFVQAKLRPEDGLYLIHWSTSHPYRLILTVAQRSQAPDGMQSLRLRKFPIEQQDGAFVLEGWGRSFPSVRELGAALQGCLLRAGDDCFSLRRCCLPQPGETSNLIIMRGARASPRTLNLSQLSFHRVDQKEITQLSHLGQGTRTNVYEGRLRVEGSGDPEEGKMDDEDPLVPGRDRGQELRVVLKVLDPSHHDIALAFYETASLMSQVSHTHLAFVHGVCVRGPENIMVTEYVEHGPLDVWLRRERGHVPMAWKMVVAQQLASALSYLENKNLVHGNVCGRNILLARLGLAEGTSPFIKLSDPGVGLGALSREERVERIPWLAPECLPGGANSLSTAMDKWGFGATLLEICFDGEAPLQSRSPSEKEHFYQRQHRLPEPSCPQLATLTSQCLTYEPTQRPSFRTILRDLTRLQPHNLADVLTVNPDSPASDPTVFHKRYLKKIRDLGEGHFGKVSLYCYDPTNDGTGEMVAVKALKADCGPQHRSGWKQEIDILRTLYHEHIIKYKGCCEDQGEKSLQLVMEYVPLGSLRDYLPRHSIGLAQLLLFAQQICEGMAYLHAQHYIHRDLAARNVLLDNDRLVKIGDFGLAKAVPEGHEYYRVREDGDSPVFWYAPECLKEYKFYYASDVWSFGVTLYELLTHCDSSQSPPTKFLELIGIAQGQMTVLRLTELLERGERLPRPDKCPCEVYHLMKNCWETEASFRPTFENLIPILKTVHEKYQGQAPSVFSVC

As for `C[C@@H]1COCCN1c1ccc(-c2nn(-c3c(F)cccc3F)c3cc[nH]c(=O)c23)cc1` [Example 246, 1-(2,6-difluorophenyl)-3-(4-((3R)-3-methylmorpholin-4-yl)phenyl)-1,5-dihydro-4H-pyrazolo[4,3-c]pyridin-4-one], the inhibition at 1 µM on JAK1 came to 94%; on Tyk2, 99%.
Regarding `Cc1c[nH]c(=O)c2c(-c3csc(C(N)=O)c3)nn(C3CCCC3)c12` [Example 281, 4-(1-cyclopentyl-7-methyl-4-oxo-4,5-dihydro-1H-pyrazolo[4,3-c]pyridin-3-yl)thiophene-2-carboxamide], the inhibition at 1 µM on JAK1 and at Tyk2 was 96% each time.
For `N#CCc1cc(-c2nn(-c3c(F)cccc3F)c3c(Cl)c[nH]c(=O)c23)cs1` [Example 152, (4-(7-chloro-1-(2,6-difluorophenyl)-4-oxo-4,5-dihydro-1H-pyrazolo[4,3-c]pyridin-3-yl)-2-thienyl)acetonitrile], the values for the inhibition at 1 µM at JAK1 and at Tyk2 were 97% and 99%, respectively.
On the same counts, the results for `CC(C)Cn1cc(-c2cn(C3CCCC3)c3c(C#N)c[nH]c(=O)c23)cn1` [Example 135, 1-cyclopentyl-3-(1-isobutyl-1H-pyrazol-4-yl)-4-oxo-4,5-dihydro-1H-pyrrolo[3,2-c]pyridine-7-carbonitrile] are 56% and 97%.
Consider `NC(=O)c1cc(F)c(-n2nc(-c3ccc(N4CCOCC4)cc3)c3c(=O)[nH]ccc32)c(F)c1` [Example 251, 3,5-difluoro-4-(3-(4-(morpholin-4-yl)phenyl)-4-oxo-4,5-dihydro-1H-pyrazolo[4,3-c]pyridin-1-yl)benzamide], for which the inhibition at 1 µM on JAK1 was 96%; at Tyk2, 99%.
Take `C[C@H]1CCC[C@H]1n1cc(-c2csc(C(N)=O)c2)c2c(=O)[nH]ccc21` (relative stereo) [Example 85, 4-(1-(cis-2-methylcyclopentyl)-4-oxo-4,5-dihydro-1H-pyrrolo[3,2-c]pyridin-3-yl)thiophene-2-carboxamide]: the inhibition at 1 µM turned out to be 90% on JAK1 and 100% at Tyk2.
Take `O=C1CCC(=O)N1Cc1ccc(-c2nn(-c3c(F)cccc3F)c3c(Cl)c[nH]c(=O)c23)cc1` [Example 219, 1-(4-(7-chloro-1-(2,6-difluorophenyl)-4-oxo-4,5-dihydro-1H-pyrazolo[4,3-c]pyridin-3-yl)benzyl)pyrrolidine-2,5-dione]: the inhibition at 10 µM at JAK1 is 82%. For the same molecule, on Tyk2, the inhibition at 1 µM came out at 98%.
On the same counts, the results for `NC(=O)c1ccc(-c2nn(-c3c(F)cccc3F)c3c(Cl)c[nH]c(=O)c23)cc1F` [Example 215, 4-(7-chloro-1-(2,6-difluorophenyl)-4-oxo-4,5-dihydro-1H-pyrazolo[4,3-c]pyridin-3-yl)-2-fluorobenzamide] are 22% and 94%.
Consider `COC(=O)c1c[nH]c(=O)c2c(-c3ccc(C(N)=O)cc3)cn(C3CCCC3)c12` [Example 29, methyl 3-(4-carbamoylphenyl)-1-cyclopentyl-4-oxo-4,5-dihydro-1H-pyrrolo[3,2-c]pyridine-7-carboxylate], for which the results for the inhibition at 1 µM on JAK1 and on Tyk2 were 14% and 83%, respectively.
As to `O=c1[nH]cc(Cl)c2c1c(-c1cnn(C3CCOCC3)c1)nn2-c1c(F)cccc1F` [Example 205, 7-chloro-1-(2,6-difluorophenyl)-3-(1-(tetrahydro-2H-pyran-4-yl)-1H-pyrazol-4-yl)-1,5-dihydro-4H-pyrazolo[4,3-c]pyridin-4-one], the inhibition at 10 µM at JAK1 is 34%. Besides, at Tyk2, the inhibition at 1 µM worked out at 97%.
Consider `COC(=O)c1cc(-c2nn(C3CCCC3)c3cc[nH]c(=O)c23)cs1` [Example 12, methyl 4-(1-cyclopentyl-4-oxo-4,5-dihydro-1H-pyrazolo[4,3-c]pyridin-3-yl)thiophene-2-carboxylate], for which the inhibition at 1 µM on JAK1 and on Tyk2 was 98% in each case.
Consider `O=c1[nH]cc(Cl)c2c1c(-c1ccc(N3CCOCC3)nc1)nn2-c1c(F)cccc1F` [Example 164, 7-chloro-1-(2,6-difluorophenyl)-3-(6-(morpholin-4-yl)pyridin-3-yl)-1,5-dihydro-4H-pyrazolo[4,3-c]pyridin-4-one], for which the values for the inhibition at 1 µM on JAK1 and on Tyk2 were 66% and 99%, respectively.
Turning to `O=C(O)c1cc(-c2nn(C3CCOCC3)c3cc[nH]c(=O)c23)cs1` [Example 23, 4-(4-oxo-1-(tetrahydro-2H-pyran-4-yl)-4,5-dihydro-1H-pyrazolo[4,3-c]pyridin-3-yl)thiophene-2-carboxylic acid], the inhibition at 1 µM on JAK1 and at Tyk2 was 98% each time.
Regarding `NS(=O)(=O)c1ccc(-c2nn(C3CCCC3)c3c(Br)c[nH]c(=O)c23)cc1` [Example 101, 4-(7-bromo-1-cyclopentyl-4-oxo-4,5-dihydro-1H-pyrazolo[4,3-c]pyridin-3-yl)benzenesulfonamide], the inhibition at 1 µM at JAK1 amounted to 80%; on Tyk2, 91%.
As for `CNC(=O)c1cc(F)cc(-c2nn(-c3c(F)cccc3F)c3cc[nH]c(=O)c23)c1` [Example 274, 3-(1-(2,6-difluorophenyl)-4-oxo-4,5-dihydro-1H-pyrazolo[4,3-c]pyridin-3-yl)-5-fluoro-N-methylbenzamide], the inhibition at 1 µM worked out at 34% on JAK1 and 77% at Tyk2.
With `COC(=O)c1c[nH]c(=O)c2c(-c3csc(C#N)c3)cn(C3CCCC3)c12` [Example 73, methyl 3-(5-cyano-3-thienyl)-1-cyclopentyl-4-oxo-4,5-dihydro-1H-pyrrolo[3,2-c]pyridine-7-carboxylate], the inhibition at 1 µM on JAK1 turned out to be 45%; at Tyk2 it was 83%.
With `CNC(=O)c1cc(F)cc(-c2nn(-c3c(F)cccc3F)c3c(Cl)c[nH]c(=O)c23)c1` [Example 273, 3-(7-chloro-1-(2,6-difluorophenyl)-4-oxo-4,5-dihydro-1H-pyrazolo[4,3-c]pyridin-3-yl)-5-fluoro-N-methylbenzamide], the results for the inhibition at 1 µM on JAK1 and on Tyk2 were 1% and 71%, respectively.
For the molecule `Cc1ccccc1-c1nn(-c2csc(C(=O)O)c2)c2c(=O)[nH]cc(C#N)c12` [Example 69, 4-(4-cyano-3-(2-methylphenyl)-7-oxo-6,7-dihydro-1H-pyrazolo[3,4-c]pyridin-1-yl)thiophene-2-carboxylic acid], the inhibition at 1 µM on JAK1 worked out at 28%; on Tyk2, 92%.
Turning to `O=c1[nH]ccc2c1c(-c1ccc(C(F)(F)F)cc1)nn2C1CCCC1` [Example 51, 1-cyclopentyl-3-(4-(trifluoromethyl)phenyl)-1,5-dihydro-4H-pyrazolo[4,3-c]pyridin-4-one], the inhibition at 1 µM on JAK1 was 90%; at Tyk2, 84%.
As to `N#CC1(NC(=O)c2cc(-c3nn(-c4c(F)cccc4F)c4c(Cl)c[nH]c(=O)c34)cs2)CC1` [Example 163, 4-(7-chloro-1-(2,6-difluorophenyl)-4-oxo-4,5-dihydro-1H-pyrazolo[4,3-c]pyridin-3-yl)-N-(1-cyanocyclopropyl)thiophene-2-carboxamide], the values for the inhibition at 1 µM at JAK1 and on Tyk2 were 98% and 100%, respectively.
Regarding `NC(=O)Cc1cccc(-c2nn(-c3c(F)cccc3F)c3cc[nH]c(=O)c23)c1` [Example 252, 2-(3-(1-(2,6-difluorophenyl)-4-oxo-4,5-dihydro-1H-pyrazolo[4,3-c]pyridin-3-yl)phenyl)acetamide], the inhibition at 1 µM on JAK1 stood at 91%; at Tyk2, 98%.
